According to patent publication US11166924B2, “N-methyl-d-aspartate receptor allosteric modulators and methods for their use” (Qingdao Primedicine Pharmaceutical Company, Ltd., priority 2016, dated 2021):

Columns and labels:
[1] = Pharmacokinetics after i.v. injection, CSF and serum by HPLC-ECD; type: in vivo, rat
Experimental: Npam43 was isolated from the CSF and serum matrix using high performance liquid chromatography and quantified via electrochemical detection. The system consisted of an ESA 582 pump (Bedford, Mass.), a pulse damper (Scientific Systems Inc., State College, Pa.), a Rheodyne Inert manual injector (model 9125i, 20 μL injection loop; Rohnert Park, Calif.), a Tosoh Bioscience Super ODS TSK column (2 μm particle, 2 mm×10 mm; Montgomeryville, Pa.), and an Antec Leyden Intro Electrochemical detector with VT-03 flow cell with a Ag/AgCl reference electrode (Vapplied=+800 mV; Leyden, The Netherlands). The mobile phase was a 20 mM phosphate buffer-acetonitrile (80:20, v/v) mixture, pH 7.0, flowed through the system at 0.1 mL/min. The column was maintained at 40° C. throughout the analysis and the injection volume was 8 uL. Prior to use, the mobile was filtered through a […] membrane and degassed using a vacuum pump and maintained under helium purging during experimental testing. EZChrome Elite software (Scientific Software, Pleasanton, Calif.) was used to acquire and analyze chromatographic data.
Samples were prepared by mixing aliquots (50:50) of the specimen with acetonitrile. The samples were mixed, allowed to rest at ambient temperature for 10 min and centrifuged at 5000 g for 5 min. Eight microliters of the supernatant was injected.
CSF and serum samples generated from the in vivo studies were thawed, and 8 μl was transferred to individual Eppendorf tubes. The internal standard (IS) of 2 μl of 0.5 μg/ml Npam50 was then added, followed by 22 μl of acetonitrile, after which samples were vortexed for 5-10 s and centrifuged for 5 min at 20,000×g to sediment precipitated protein. […]
An in-vivo pharmacological profile of Npam43 was evaluated using Sprague Dawley mature (˜300 g) rats. Npam43 was injected intravenously (i.v) at different doses ranging from 0.5-5 mg/kg and cerebrospinal fluid (CSF) and serum samples were extracted and analyzed using a high performance liquid chromatography electrochemical detection assay (HPLC-ECD). […]

GluN1/GluN2A^F115Y = target: T1, GluN1/GluN2A^F115Y (Rattus norvegicus, UniProt P35439+Q00959, F115Y); experiment: Patch clamp in HEK293 cells expressing mutant GluN1/GluN2A F115Y; type: cell-based
T1 construct: expressed in transfected cells; host or cells: HEK293
Experimental: (§1) Whole cell patch-clamp recordings were performed under voltage-clamp mode using an Axopatch 200B or 1D patch-clamp amplifier (Molecular Devices). Whole-cell currents were recorded at a holding potential of −60 mV unless indicated elsewhere, and signals were filtered at 2 kHz, digitized at 10 kHz (Digidata 1322A). Recording pipettes (3-5 MΩ) were filled with intracellular solution containing (mM): CsCl 140, HEPES 10, Mg-ATP 4, QX-314 5, pH 7.20; osmolarity, 290-295 mOsm. BAPTA (10 mM) was added in the intracellular solution (unless otherwise specified). The coverslips were continuously superfused with extracellular solution containing (mM): NaCl 140, KCl 5.4, HEPES 10, CaCl2 1.3, glucose 20, pH 7.4; osmolarity, 305-315 mOsm. NMDA-induced currents were applied by NMDA through perfusion fast-step (Warner Instruments). With perfusion fast-step system, NMDA application was achieved by using a two-square barrel glass tubing and depending on the age of the cultured neurons, CNQX (10 μM), TTX (0.5 μM) or BIC (10 μM) were added in the extracellular solution to minimize the activation of ionotropic glutamate receptors and voltage-gated sodium channels, respectively. All experiments were performed at room temperature. Recordings from at least six HEK293 cells/neurons were performed for all active compounds. […]

GluN1/GluN2A^P178G = target: T2, GluN1/GluN2A^P178G (Rattus norvegicus, UniProt P35439+Q00959, P178G); experiment: Patch clamp in HEK293 cells expressing mutant GluN1/GluN2A P178G; type: cell-based
T2 construct: expressed in transfected cells; host or cells: HEK293
Experimental: as §1

[2] = system: post-stroke locomotory behavior; experiment: Neurological behavioral tests after stroke; type: in vivo, rat; settings: 28 days after stroke onset, versus untreated control rats
Experimental: To assess functional recovery of neural circuits damaged by ischemic insult, three locomotor activity (sensorimotor) deficit modalities were tested: 1) vertical activity (the total number of beam interruptions that occurred in the vertical sensor); 2) number of vertical movements (number of animal rears); and 3) vertical movement time (the amount of time, in seconds, the animal rears) using the VersaMax Animal Activity Monitor (Accuscan Instruments). An ischemic rat was placed into the recording chamber during the ‘dark’ phase of the day/night cycle, and vertical movement time (seconds) was automatically recorded by computer over a 2 h period. The total length of vertical movement represents the recovery of locomotor circuits injured by ischemic stroke.
Neurobehavioral assays were performed to assess functional recovery of neurons post-stroke.

T1 sequence (Q00959 23-1464 F115Y, other chains not shown): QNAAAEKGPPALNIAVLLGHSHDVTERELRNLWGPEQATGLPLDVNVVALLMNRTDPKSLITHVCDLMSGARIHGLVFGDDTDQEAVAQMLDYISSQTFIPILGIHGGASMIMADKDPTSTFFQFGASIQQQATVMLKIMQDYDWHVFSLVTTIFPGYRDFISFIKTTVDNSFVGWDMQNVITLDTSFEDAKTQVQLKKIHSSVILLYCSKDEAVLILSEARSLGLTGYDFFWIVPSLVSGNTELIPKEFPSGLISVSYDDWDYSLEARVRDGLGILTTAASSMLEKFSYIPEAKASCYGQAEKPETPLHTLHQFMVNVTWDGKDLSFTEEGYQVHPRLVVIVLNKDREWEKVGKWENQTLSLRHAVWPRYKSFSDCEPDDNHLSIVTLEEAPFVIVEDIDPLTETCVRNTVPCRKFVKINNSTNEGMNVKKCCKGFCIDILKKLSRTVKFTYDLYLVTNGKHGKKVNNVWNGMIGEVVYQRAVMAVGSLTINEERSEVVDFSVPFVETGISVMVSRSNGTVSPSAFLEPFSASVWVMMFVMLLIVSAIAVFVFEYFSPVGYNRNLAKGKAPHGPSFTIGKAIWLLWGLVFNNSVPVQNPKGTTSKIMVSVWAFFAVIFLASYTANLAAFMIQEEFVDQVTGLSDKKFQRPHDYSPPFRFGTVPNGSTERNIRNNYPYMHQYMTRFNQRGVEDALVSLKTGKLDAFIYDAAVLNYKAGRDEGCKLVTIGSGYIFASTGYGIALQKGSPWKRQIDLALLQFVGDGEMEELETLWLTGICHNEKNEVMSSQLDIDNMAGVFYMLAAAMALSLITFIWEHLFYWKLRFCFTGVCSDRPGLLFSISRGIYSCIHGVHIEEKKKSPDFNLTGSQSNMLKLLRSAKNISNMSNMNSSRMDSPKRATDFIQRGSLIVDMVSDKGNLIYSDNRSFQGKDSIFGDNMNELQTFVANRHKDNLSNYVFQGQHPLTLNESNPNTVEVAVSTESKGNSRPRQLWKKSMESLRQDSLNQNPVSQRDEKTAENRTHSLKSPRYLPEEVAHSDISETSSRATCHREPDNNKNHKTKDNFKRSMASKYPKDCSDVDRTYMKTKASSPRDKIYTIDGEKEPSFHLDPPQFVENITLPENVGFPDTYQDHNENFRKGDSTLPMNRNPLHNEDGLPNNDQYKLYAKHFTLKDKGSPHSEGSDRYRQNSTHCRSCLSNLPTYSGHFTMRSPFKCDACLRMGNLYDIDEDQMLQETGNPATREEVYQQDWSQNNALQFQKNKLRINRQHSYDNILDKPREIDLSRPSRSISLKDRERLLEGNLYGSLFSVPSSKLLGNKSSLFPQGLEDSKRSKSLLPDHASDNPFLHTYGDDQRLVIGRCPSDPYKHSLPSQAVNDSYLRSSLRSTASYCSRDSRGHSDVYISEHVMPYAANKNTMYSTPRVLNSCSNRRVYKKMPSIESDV
T2 sequence (Q00959 23-1464 P178G, other chains not shown): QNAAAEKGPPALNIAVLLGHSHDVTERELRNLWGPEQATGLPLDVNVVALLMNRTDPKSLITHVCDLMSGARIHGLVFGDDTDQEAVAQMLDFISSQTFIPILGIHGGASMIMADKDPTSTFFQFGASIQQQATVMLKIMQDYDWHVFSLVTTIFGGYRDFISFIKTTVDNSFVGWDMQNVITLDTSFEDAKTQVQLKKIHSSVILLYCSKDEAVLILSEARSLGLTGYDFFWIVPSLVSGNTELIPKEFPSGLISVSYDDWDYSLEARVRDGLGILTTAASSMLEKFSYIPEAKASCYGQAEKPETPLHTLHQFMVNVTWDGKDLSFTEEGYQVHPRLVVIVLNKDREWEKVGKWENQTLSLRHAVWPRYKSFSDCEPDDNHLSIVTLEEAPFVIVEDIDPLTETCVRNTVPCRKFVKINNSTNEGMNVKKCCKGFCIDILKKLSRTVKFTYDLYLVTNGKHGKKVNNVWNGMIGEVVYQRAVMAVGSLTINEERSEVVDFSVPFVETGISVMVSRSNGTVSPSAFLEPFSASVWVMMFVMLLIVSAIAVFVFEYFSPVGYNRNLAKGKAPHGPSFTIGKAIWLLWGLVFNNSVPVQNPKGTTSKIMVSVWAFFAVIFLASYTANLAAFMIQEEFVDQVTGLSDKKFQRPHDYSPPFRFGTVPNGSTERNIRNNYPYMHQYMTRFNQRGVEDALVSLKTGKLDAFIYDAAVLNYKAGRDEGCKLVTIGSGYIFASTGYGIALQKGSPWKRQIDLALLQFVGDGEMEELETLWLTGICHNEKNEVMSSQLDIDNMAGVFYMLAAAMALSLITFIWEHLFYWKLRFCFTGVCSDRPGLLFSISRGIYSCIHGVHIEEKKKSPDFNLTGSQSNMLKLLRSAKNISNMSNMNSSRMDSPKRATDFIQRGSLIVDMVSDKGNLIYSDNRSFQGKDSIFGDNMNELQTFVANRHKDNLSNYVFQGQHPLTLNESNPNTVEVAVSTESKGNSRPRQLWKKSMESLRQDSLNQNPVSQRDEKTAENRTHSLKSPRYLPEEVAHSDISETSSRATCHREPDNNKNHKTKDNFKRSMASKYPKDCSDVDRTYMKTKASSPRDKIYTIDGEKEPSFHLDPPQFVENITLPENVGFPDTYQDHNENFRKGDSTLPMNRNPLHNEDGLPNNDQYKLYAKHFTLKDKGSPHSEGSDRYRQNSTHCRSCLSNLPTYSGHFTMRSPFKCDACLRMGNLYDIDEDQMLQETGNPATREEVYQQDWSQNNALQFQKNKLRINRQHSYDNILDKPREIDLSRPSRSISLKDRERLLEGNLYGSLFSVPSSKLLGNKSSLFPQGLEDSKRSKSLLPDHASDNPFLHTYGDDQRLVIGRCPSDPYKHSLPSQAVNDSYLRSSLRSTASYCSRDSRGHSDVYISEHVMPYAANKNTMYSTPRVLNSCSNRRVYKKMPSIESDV

## CCOc1cc(Cl)c(Cl)c(/C=N/NC(=O)c2ccccc2Br)c1O [Npam43, (E)-2-bromo-N′-(2,3-dichloro-5-ethoxy-6-hydroxybenzylidene)benzohydrazide]
[1]; Sprague-Dawley, rat, CSF, iv, rats, estimated
  half-life: 2.95 ± 0.6 h
[1]; i.v. 0.5-5 mg/kg, Sprague Dawley rats
  Blood-brain-barrier penetration: effective at penetrating the blood-brain-barrier (BBB)
[1]; i.v., rats, FIG. 22
  Metabolic stability in the CSF and serum: moderate metabolic stability
GluN1/GluN2A^F115Y; Table 3
  Relative potentiation: 100 ± 4.2%
GluN1/GluN2A^F115Y; normalized to wild-type
  Net Difference potentiation: −52.2 ± 0.52%
GluN1/GluN2A^P178G; Table 3
  Relative potentiation: 95.5 ± 3.8%
GluN1/GluN2A^P178G; normalized to wild-type
  Net Difference potentiation: −54.3 ± 0.42%
[2]
  Post-stroke locomotory behavior: increased post-stroke locomotory behavior
